# According to ChEMBL document CHEMBL1140680 (Bioorg Med Chem Lett, 2007):
# How the values were obtained:
# Staphylococcus aureus = assay: Antibacterial activity against Staphylococcus aureus UC76 SA1 by micro-broth method; format: functional
# Enterococcus faecalis = assay: Antibacterial activity against Enterococcus faecalis MG2 EF1 by micro-broth method; format: functional
# Streptococcus pneumoniae = assay: Antibacterial activity against Streptococcus pneumoniae SV1 SP3 by micro-broth method; format: functional
# Moraxella catarrhalis = assay: Antibacterial activity against Moraxella catarrhalis BC-3531 by micro-broth method; format: functional
# Haemophilus influenzae = assay: Antibacterial activity against Heamophilus influenzae HI3542 by microbroth method; format: functional
# Escherichia coli = assay: Inhibition of transcription and translation activity in Escherichia coli by luciferase reporter assay; format: functional, organism-based
# Streptococcus pyogenes = assay: Antibacterial activity against Streptococcus pyogenes C203 SP1-1 by micro-broth method; format: functional
Structure (SMILES),MIC (Staphylococcus aureus) [µg/mL],MIC (Enterococcus faecalis) [µg/mL],MIC (Streptococcus pneumoniae) [µg/mL],MIC (Moraxella catarrhalis) [µg/mL],MIC (Haemophilus influenzae) [µg/mL],IC50 (Escherichia coli) [nM],MIC (Streptococcus pyogenes) [µg/mL]
CC(=O)NC[C@H]1CN(c2ccc3c(c2)CCCc2c(-c4ccncc4)n[nH]c2-3)C(=O)O1,2,1,0.25,2,4,1000,0.25
CC(=O)NC[C@H]1CN(c2ccc3c(c2)CCCc2c(-c4ccc(F)cc4)n[nH]c2-3)C(=O)O1,0.5,0.5,0.25,1,8,1500,1
CC(=O)NC[C@H]1CN(c2cc(F)c3c(c2)CCCc2cn[nH]c2-3)C(=O)O1,2,2,1,8,8,2100,1
O=C(NC[C@H]1CN(c2ccc3c(c2)CCCc2c(-c4ccoc4)n[nH]c2-3)C(=O)O1)c1ccoc1,2,1,1,4,8,3500,1
CC(=O)NC[C@H]1CN(c2ccc3c(c2)CCCc2c(-c4cc5ccccc5o4)n[nH]c2-3)C(=O)O1,2,0.5,0.5,8,> 64,> 31200,0.5
CC(=O)NC[C@H]1CN(c2ccc3c(c2)CCCc2c(-c4cc(C)on4)n[nH]c2-3)C(=O)O1,0.5,0.5,0.25,2,4,900,0.25
CC(=O)NC[C@H]1CN(c2ccc3c(c2)CCCc2c(-c4cccnc4)n[nH]c2-3)C(=O)O1,1,0.5,0.125,2,4,1000,0.25
CCOC(=O)NC[C@H]1CN(c2ccc3c(c2)CCCc2c(-c4ccno4)n[nH]c2-3)C(=O)O1,1,0.5,0.5,4,> 64,1800,0.5
CC(=O)NC[C@H]1CN(c2ccc3c(c2)CCCc2cn[nH]c2-3)C(=O)O1,0.5,0.25,0.25,2,2,–,0.125
CC(=O)NC[C@H]1CN(c2ccc3c(c2)CCCc2c(C)n[nH]c2-3)C(=O)O1,1,1,0.5,4,4,1200,0.5
Cc1cc(C(=O)NC[C@H]2CN(c3cc(F)c4c(c3)CCCc3c(-c5cc(C)n(C)n5)n[nH]c3-4)C(=O)O2)nn1C,> 64,> 64,> 64,> 64,> 64,> 25000,> 64
CC(=O)NC[C@H]1CN(c2ccc3c(c2)CCCc2c(C(F)(F)F)n[nH]c2-3)C(=O)O1,1,1,0.25,1,4,1300,1
CCCc1n[nH]c2c1CCCc1cc(N3C[C@H](CNC(C)=O)OC3=O)ccc1-2,2,1,0.5,4,16,3100,0.5
CC(=O)NC[C@H]1CN(c2ccc3c(c2)CCCCC3=O)C(=O)O1,1,2,0.5,–,–,–,0.5
CC(=O)NC[C@H]1CN(c2ccc3c(c2)CCCc2c(C(C)C)n[nH]c2-3)C(=O)O1,2,2,0.5,8,16,4300,1
O=C(NC[C@H]1CN(c2ccc3c(c2)CCCc2c(-c4ccno4)n[nH]c2-3)C(=O)O1)C(F)F,0.5,0.5,0.25,1,4,210,0.125
CC(=O)NC[C@H]1CN(c2cc(F)c3c(c2)CCCc2c(-c4cc(C)on4)n[nH]c2-3)C(=O)O1,1,0.5,0.5,4,> 64,2100,0.5
CCc1n[nH]c2c1CCCc1cc(N3C[C@H](CNC(C)=O)OC3=O)ccc1-2,0.5,0.25,0.125,1,4,1100,0.125
O=C(NC[C@H]1CN(c2ccc3c(c2)CCCc2c(-c4ccno4)n[nH]c2-3)C(=O)O1)c1ccno1,1,1,0.5,4,32,16800,0.5

Structure (SMILES),MIC (Staphylococcus aureus) [µg/mL],MIC (Enterococcus faecalis) [µg/mL],MIC (Streptococcus pneumoniae) [µg/mL],MIC (Moraxella catarrhalis) [µg/mL],MIC (Haemophilus influenzae) [µg/mL],IC50 (Escherichia coli) [nM],MIC (Streptococcus pyogenes) [µg/mL]
Cc1cc(C(=O)NC[C@H]2CN(c3ccc4c(c3)CCCc3c(-c5cc(C)on5)n[nH]c3-4)C(=O)O2)no1,> 64,> 64,1,> 64,> 64,–,2
CC(=O)NC[C@H]1CN(c2ccc3c(c2)CCCc2c(-c4ccc(O)cc4)n[nH]c2-3)C(=O)O1,1,0.5,0.25,2,4,1700,2
CC(=O)NC[C@H]1CN(c2ccc3c(c2)CCCc2c(-c4ccoc4)n[nH]c2-3)C(=O)O1,0.5,0.25,0.25,1,4,700,0.125
CC(=O)NC[C@H]1CN(c2ccc3c(c2)CCCc2c(-c4cc(C)n(C)n4)n[nH]c2-3)C(=O)O1,0.5,0.5,0.25,4,8,1300,0.25
NC[C@H]1CN(c2ccc3c(c2)CCCc2c(-c4ccno4)n[nH]c2-3)C(=O)O1,16,8,4,64,> 64,8300,2
CCCC(=O)NC[C@H]1CN(c2ccc3c(c2)CCCc2c(CCC)n[nH]c2-3)C(=O)O1,2,2,1,8,> 64,5600,1
O=C(NC[C@H]1CN(c2ccc3c(c2)CCCc2c(-c4ccno4)n[nH]c2-3)C(=O)O1)c1cccnc1,2,1,1,32,> 64,2800,1
CC(=O)NC[C@H]1CN(c2ccc3c(c2)CCCc2c(-c4nnc(-c5ccccc5)o4)n[nH]c2-3)C(=O)O1,> 64,> 64,0.25,> 64,16,–,0.25
CC(=O)NC[C@H]1CN(c2cc(F)c3c(c2)CCCc2c(-c4ccno4)n[nH]c2-3)C(=O)O1,1,0.5,0.5,4,> 64,1400,0.25
CC(=O)NC[C@H]1CN(c2ccc3c(c2)CCCc2c(-c4csc(-c5ccccc5)n4)n[nH]c2-3)C(=O)O1,8,8,0.5,> 64,> 64,> 11400,1
CC(C)C(=O)NC[C@H]1CN(c2ccc3c(c2)CCCc2c(C(C)C)n[nH]c2-3)C(=O)O1,8,8,4,32,64,7900,4
O=C(NC[C@H]1CN(c2ccc3c(c2)CCCc2c(-c4cccnc4)n[nH]c2-3)C(=O)O1)c1cccnc1,8,4,1,16,> 64,3700,2
CC(=O)NC[C@H]1CN(c2ccc3c(c2)CCCc2c(-c4nc5ccccc5s4)n[nH]c2-3)C(=O)O1,> 64,> 64,> 64,> 64,> 64,–,> 64
CC(=O)NC[C@H]1CN(c2ccc(N3CCOCC3)c(F)c2)C(=O)O1 [LINEZOLID],–,–,–,–,–,–,2
CC(=O)NC[C@H]1CN(c2ccc3c(c2)CCCc2c(-c4cscn4)n[nH]c2-3)C(=O)O1,1,0.5,0.125,1,2,1100,1
CC(=O)NC[C@H]1CN(c2ccc3c(c2)CCCc2c(-c4ccno4)n[nH]c2-3)C(=O)O1,0.25,0.125,< 0.06,1,2,760,< 0.06
O=C(NC[C@H]1CN(c2ccc3c(c2)CCCc2c(-c4cc5ccccc5o4)n[nH]c2-3)C(=O)O1)c1cc2ccccc2o1,32,32,8,> 64,> 64,> 25000,4
CC(=O)NC[C@H]1CN(c2ccc3c(c2)CCCc2c(-c4snnc4C)n[nH]c2-3)C(=O)O1,0.5,0.5,0.25,2,8,700,0.125
CC(=O)NC[C@H]1CN(c2cc(F)c3c(c2)CCCc2c(-c4ccco4)n[nH]c2-3)C(=O)O1,2,2,1,8,64,5700,1
